Reference: ChEMBL document CHEMBL1201862, “PubChem BioAssay data set” (2004)
The source made the active and inactive calls.

Key:
Aminopeptidase N = molecular target: T1, Aminopeptidase N (Plasmodium falciparum FcB1/Columbia, UniProt O96935); experiment: P. falciparum M1AAP inhibitors, biochemical, fluorogenic H-Leu-NHMec substrate, 1536-well (AID 1445); design: species or system Plasmodium falciparum 3D7, 3D7
T1 sequence (O96935 whole entry): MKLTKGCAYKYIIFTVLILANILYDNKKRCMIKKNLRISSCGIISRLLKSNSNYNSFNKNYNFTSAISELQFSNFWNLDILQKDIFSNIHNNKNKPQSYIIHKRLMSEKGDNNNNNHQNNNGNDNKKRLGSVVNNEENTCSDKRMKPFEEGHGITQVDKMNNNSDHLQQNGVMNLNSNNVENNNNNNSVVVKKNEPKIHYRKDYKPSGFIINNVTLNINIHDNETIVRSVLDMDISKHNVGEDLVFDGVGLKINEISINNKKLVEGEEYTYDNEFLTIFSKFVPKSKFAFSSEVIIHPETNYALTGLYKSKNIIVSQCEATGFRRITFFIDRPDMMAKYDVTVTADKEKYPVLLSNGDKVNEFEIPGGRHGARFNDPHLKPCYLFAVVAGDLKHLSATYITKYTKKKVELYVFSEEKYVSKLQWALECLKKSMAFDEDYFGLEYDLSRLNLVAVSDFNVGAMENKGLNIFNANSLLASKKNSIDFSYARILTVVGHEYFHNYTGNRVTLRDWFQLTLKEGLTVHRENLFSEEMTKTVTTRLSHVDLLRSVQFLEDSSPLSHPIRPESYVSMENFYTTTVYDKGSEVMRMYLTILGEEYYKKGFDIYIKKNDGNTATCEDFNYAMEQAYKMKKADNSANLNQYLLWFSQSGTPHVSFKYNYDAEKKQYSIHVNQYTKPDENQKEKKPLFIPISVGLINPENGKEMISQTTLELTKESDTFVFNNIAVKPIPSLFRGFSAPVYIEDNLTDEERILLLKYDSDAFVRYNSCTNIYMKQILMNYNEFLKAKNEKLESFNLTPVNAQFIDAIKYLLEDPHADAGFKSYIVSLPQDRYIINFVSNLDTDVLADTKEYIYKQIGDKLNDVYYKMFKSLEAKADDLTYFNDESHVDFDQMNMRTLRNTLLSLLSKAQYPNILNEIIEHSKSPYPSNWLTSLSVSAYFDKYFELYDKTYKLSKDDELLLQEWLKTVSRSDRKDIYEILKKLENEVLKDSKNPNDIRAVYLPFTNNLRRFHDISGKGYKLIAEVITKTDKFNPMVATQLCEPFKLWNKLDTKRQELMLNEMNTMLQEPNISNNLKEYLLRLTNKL

[1] = molecular target: T2, Carboxy-terminal domain RNA polymerase II polypeptide A small phosphatase 1 (Homo sapiens, UniProt Q9GZU7); experiment: inhibitors of CTDSP1, concentration-response testing, biochemical assay, absorbance-based, actives from ultra-high-throughput screening (AID 540297); format: functional
T2 sequence (Q9GZU7 whole entry): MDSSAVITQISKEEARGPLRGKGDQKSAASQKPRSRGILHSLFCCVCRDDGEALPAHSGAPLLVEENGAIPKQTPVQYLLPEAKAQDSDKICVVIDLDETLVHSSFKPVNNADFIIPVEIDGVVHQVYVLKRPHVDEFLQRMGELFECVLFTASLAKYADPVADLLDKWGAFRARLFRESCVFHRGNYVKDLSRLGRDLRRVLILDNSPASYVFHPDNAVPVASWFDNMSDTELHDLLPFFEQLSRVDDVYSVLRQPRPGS

Fatty acid synthase [2] = molecular target: T3, Fatty acid synthase (Homo sapiens, UniProt P49327); experiment: FAS thioesterase domain inhibitors, dose response, biochemical, endpoint fluorescence intensity, uHTS hits (AID 624327); format: functional;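 further: fluorescence from hydrolysis of an O-methyl fluorescein acyl ester substrate by the enzyme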
T3 sequence (P49327 whole entry, the tested form may be a part): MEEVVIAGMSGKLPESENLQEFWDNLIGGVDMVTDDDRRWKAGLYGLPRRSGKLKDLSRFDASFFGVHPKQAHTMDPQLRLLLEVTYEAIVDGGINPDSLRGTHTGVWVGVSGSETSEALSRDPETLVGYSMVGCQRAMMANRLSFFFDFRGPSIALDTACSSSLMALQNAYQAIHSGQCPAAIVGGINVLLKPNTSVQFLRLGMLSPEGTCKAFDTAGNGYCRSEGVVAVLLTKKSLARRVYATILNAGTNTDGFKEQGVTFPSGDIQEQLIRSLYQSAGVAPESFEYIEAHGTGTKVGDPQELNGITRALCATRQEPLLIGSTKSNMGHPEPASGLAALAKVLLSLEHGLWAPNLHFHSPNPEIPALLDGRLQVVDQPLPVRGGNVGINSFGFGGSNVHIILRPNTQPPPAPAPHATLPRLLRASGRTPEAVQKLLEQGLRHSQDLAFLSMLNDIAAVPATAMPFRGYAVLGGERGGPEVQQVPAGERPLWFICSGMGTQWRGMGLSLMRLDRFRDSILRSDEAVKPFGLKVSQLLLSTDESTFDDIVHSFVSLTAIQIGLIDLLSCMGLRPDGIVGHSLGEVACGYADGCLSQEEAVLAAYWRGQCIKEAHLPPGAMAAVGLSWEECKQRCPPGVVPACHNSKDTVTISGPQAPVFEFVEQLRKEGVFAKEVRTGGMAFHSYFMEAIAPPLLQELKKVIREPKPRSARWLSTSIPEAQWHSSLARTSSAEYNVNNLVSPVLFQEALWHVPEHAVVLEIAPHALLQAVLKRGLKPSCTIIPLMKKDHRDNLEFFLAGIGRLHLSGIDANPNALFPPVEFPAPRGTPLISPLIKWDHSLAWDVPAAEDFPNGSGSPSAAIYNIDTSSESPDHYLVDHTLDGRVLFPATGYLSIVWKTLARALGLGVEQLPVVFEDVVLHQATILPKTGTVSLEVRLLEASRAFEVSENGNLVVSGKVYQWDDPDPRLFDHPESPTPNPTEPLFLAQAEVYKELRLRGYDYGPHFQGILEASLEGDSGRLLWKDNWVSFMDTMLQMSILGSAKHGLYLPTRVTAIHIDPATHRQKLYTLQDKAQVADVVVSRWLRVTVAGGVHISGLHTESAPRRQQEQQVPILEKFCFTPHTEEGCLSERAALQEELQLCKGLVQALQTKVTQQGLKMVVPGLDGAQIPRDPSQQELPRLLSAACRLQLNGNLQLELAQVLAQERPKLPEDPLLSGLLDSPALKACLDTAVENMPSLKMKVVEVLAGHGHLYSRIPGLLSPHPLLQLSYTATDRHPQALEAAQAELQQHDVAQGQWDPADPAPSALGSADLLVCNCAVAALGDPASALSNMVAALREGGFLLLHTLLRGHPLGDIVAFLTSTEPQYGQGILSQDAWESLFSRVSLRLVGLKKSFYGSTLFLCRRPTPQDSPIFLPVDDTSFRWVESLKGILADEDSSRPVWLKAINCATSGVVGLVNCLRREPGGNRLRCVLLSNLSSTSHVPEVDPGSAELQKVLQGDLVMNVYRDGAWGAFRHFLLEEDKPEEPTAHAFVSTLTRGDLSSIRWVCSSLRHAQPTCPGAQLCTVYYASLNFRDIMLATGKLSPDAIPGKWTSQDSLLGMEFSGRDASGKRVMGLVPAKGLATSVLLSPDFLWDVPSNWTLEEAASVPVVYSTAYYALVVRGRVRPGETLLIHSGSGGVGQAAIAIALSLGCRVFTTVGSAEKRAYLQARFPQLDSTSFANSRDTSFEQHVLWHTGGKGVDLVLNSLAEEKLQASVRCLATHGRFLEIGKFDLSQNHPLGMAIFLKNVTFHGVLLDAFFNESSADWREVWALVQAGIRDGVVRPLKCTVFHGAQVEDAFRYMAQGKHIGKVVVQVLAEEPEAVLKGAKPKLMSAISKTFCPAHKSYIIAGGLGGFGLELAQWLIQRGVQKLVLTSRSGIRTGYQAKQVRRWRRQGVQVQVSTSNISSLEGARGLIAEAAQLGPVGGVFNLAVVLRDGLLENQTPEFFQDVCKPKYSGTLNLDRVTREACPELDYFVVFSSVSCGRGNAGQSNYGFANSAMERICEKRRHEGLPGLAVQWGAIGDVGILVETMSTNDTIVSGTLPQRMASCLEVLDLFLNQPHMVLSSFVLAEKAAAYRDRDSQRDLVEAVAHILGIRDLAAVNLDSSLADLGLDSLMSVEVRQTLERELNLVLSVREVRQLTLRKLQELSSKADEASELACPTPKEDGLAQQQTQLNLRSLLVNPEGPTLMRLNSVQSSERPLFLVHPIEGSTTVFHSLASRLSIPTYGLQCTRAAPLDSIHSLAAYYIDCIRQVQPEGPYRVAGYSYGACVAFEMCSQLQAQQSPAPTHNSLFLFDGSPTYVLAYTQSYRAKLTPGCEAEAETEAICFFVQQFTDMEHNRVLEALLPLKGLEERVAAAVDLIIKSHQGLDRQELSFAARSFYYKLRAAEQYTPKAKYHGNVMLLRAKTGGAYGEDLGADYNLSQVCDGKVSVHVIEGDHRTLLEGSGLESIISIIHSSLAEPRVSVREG

Fatty acid synthase [3] = molecular target: T3, Fatty acid synthase; experiment: FAS thioesterase domain inhibitors, dose response, biochemical, kinetic fluorescence intensity (AID 624326); format: functional;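 further: rate of fluorescence rise from hydrolysis of a fluorogenic O-methyl fluorescein ester substrate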
Kallikrein-7 = Kallikrein-7 (Homo sapiens, UniProt P49862); experiment: Fluorescence Intensity-based biochemical primary high throughput dose response assay to identify activators of kallikrein-7 (K7) zymogen.
Chain of Kallikrein-7 (P49862 whole entry): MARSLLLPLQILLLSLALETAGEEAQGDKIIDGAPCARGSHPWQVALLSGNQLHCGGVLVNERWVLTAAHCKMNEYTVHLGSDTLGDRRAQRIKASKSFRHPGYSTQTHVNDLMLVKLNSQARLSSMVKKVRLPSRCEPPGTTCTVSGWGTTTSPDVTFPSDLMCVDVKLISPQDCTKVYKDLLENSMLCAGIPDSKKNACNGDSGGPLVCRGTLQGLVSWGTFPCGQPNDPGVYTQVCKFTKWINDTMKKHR

Caspase-6 = molecular target: T4, Caspase-6 (Homo sapiens, UniProt P55212); experiment: human caspase-6 inhibitors, dose response, biochemical, VEID-R110 fluorescence, cherry-pick (AID 720632)
T4 sequence (P55212 whole entry): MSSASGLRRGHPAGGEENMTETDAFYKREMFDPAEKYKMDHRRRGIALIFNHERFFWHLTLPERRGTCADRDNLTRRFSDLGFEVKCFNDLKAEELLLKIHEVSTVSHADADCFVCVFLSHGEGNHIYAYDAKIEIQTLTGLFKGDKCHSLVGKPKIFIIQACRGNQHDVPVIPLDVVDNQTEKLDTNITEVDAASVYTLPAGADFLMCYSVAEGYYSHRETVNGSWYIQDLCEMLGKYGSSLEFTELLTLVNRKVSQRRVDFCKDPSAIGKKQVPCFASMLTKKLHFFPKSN

[4] = P. falciparum 3D7-ScDHODH growth inhibitors, dose response, SYBR Green, dry powder samples (AID 1159570); format: functional, cell-based;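 further: parasite growth measured after 72 hours of compound exposure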
[5] = HepG2 cell cytotoxicity, dose response, cytotoxicity control, plate reader, dry powder samples (AID 1159569); format: functional, cell-based;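 further: inhibitor potency with signal falling toward the positive control level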
[6] = P. falciparum Dd2 growth inhibitors, dose response, SYBR Green, cherry-picked samples (AID 1159567); format: functional, cell-based
[7] = P. falciparum Dd2 growth inhibitors, dose response, SYBR Green, dry powder samples (AID 1159566); format: functional, cell-based;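 further: potency for growth inhibition with lower SYBR green DNA signal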
[8] = P. falciparum ATP4 D1247Y mutant growth inhibitors, dose response, NITD609-resistant line, SYBR Green, dry powder (AID 1159571); format: functional, cell-based;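 further: parasites synchronized at ring stage by sorbitol before testing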
[9] = A cytotoxicity screen of small molecule inhibitors of the PhoP region in Salmonella typhi identified in the primary screen. [Related pubchem assays: 1850, 1864, 1985 ]; format: functional
cells [10] = format: functional, cell-based
cells [11] = format: functional, cell-based; remark: listed apart in the source
[12] = molecular target: T5, DNA repair and recombination protein RAD54-like (Homo sapiens, UniProt Q92698); experiment: inhibitors of human RAD54 branch migration, confirmation, biochemical, fluorescence, cherry-picked samples, dose series (AID 651657); format: functional
T5 sequence (Q92698 whole entry): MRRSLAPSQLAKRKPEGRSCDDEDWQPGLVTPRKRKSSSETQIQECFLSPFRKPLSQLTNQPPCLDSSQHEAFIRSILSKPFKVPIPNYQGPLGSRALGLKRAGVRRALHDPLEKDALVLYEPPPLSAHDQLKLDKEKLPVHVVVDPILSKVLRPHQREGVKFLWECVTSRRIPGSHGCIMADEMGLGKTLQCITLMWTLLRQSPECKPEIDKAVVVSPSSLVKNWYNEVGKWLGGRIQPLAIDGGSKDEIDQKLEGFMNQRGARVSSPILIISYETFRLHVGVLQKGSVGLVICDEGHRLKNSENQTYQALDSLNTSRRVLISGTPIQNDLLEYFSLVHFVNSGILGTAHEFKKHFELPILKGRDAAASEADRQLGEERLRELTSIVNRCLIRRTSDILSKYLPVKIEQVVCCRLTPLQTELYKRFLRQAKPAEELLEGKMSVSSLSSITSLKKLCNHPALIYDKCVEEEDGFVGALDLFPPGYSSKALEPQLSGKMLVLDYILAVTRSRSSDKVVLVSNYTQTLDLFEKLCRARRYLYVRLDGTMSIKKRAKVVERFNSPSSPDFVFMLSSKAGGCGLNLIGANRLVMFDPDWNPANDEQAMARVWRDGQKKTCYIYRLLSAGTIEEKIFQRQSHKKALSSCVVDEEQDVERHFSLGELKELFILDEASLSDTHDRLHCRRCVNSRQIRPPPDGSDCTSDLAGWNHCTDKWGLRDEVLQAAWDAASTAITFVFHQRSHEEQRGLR

HEK293 [13] = experiment: NOD1 signaling inhibitors, primary screen, cell-based, luminescence, uHTS (AID 1578); format: functional; settings: Homo sapiens
HEK293 [14] = experiment: cells; format: functional, cell-based; settings: Homo sapiens
HEK293 [15] = experiment: cells; format: functional, cell-based; settings: Homo sapiens; remark: listed apart in the source
HEK293 [16] = experiment: NOD2 signaling inhibitors in MDP-stimulated cells, cell-based, uHTS, luminescence (AID 2001); format: functional; settings: Homo sapiens
Mucolipin-3 = molecular target: T6, Mucolipin-3 (Homo sapiens, UniProt Q8TDD5); experiment: Dose response cell-based high-throughput screening assay for agonists of the transient receptor potential channel ML3 (TRPML3). [Related pubchem assays: 1526, 1424, 1448 ]; format: functional
T6 sequence (Q8TDD5 whole entry): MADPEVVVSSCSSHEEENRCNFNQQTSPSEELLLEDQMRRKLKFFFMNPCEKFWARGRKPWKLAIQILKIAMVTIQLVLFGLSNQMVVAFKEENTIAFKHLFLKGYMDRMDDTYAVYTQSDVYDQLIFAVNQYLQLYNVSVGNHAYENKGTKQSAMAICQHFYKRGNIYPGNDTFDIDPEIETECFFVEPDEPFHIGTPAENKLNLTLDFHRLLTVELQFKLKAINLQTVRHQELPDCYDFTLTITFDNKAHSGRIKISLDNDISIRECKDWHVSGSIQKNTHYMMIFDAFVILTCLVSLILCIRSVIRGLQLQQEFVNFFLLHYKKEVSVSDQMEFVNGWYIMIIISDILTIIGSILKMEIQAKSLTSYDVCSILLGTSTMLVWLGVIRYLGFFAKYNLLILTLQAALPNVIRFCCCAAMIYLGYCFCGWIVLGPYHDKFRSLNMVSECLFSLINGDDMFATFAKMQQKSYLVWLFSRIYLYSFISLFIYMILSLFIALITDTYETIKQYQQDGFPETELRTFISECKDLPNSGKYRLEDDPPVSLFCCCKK

Ion channel NompC = Ion channel NompC (Danio rerio, UniProt Q7T1G6); experiment: Fluorescence counterscreen assay for TRPML3 agonists: dose response cell-based high-throughput screening assay to identify agonists of the transient receptor potential channel N1 (TRPN1). [Related pubchem assays: 1526, 1424, 1448 ]; format: functional
Chain of Ion channel NompC (Q7T1G6 whole entry): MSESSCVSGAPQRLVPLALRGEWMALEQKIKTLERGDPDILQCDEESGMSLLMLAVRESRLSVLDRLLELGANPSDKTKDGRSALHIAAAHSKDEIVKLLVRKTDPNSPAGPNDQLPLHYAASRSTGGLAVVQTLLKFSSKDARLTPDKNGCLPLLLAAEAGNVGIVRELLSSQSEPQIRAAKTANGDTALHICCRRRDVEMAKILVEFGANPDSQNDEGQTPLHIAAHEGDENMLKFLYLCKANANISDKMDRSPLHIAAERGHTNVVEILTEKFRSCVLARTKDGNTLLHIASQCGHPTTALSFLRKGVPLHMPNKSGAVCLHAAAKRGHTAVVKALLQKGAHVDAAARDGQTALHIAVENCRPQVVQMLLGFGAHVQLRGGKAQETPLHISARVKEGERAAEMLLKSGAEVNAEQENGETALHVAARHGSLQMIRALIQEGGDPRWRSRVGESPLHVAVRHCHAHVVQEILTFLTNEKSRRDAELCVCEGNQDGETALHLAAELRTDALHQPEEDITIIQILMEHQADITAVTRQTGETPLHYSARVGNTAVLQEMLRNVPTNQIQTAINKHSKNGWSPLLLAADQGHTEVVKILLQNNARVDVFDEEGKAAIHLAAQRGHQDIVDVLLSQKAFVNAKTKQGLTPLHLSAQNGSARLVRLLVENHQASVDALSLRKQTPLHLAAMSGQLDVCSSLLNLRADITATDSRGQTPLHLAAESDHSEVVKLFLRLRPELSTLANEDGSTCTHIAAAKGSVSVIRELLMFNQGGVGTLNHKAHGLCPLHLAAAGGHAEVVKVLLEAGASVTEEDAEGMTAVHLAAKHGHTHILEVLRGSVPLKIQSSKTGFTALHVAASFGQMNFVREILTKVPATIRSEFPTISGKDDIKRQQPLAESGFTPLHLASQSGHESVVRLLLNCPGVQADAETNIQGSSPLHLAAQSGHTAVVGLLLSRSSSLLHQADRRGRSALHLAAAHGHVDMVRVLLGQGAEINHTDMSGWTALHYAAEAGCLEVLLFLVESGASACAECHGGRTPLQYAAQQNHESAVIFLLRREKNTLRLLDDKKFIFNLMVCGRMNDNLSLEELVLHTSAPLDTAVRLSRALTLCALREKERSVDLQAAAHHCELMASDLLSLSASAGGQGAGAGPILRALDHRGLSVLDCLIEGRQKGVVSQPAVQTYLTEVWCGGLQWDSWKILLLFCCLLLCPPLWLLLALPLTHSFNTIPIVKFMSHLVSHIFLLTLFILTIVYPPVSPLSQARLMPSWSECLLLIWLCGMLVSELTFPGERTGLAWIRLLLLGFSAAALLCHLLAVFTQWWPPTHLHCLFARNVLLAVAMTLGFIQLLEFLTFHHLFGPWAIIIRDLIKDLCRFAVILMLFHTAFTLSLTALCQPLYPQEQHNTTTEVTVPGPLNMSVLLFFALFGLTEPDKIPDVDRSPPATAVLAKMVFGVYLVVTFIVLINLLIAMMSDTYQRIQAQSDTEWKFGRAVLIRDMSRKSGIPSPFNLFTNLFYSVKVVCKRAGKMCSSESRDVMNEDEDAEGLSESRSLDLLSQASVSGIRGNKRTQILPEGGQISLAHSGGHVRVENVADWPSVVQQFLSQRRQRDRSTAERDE

[17] = intracellular Trypanosoma cruzi inhibitors in host cells – cell-based, plate reader, cherry-pick samples, set 3, dose response (AID 651818); format: functional;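 further: compounds incubated with infected cells for about four days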

With `O=C(O)c1cc(-c2ccc(/C=N/NC(=S)Nc3ccccc3)o2)ccc1Cl` the IC50 (Aminopeptidase N) was 31.2 µM (active), the IC50 [1] was 12.1 µM (active) and the IC50 (Fatty acid synthase [2]) was 15.8 µM (active). The IC50 (Fatty acid synthase [3]) was 16.1 µM (active).
With `Nc1nccnc1C(=O)OCc1nc2sc3c(c2c(=O)[nH]1)CCCC3` the EC50 (Kallikrein-7) was 6.32 µM (active).
For `Nc1cc([N+](=O)[O-])ccc1N1C(=O)CCCC1=O`, the IC50 [1] was 10.8 µM (active) and the AC50 (Caspase-6) was 18.3 µM (active).
In the case of `C[C@H](CO)N1C[C@H](C)[C@@H](CN(C)Cc2cccc(C(=O)Nc3ccccc3N)c2)OCc2ccccc2-c2c(n(C)c3ccccc23)C1=O`, the AC50 [4] is reported as 0.944 µM (active), the AC50 [5] is reported as 72.9 µM (active) and the AC50 [6] is reported as 1.21 µM (active). For the same compound, the AC50 [7] was 1.12 µM (active) and the AC50 [8] was 0.949 µM (active).
In the case of `C[N+]12CN3CN(CN(C3)C1)C2`, the EC50 [9] is reported as > 50 µM (active).
For `O=C(CN1CCCC1)Nc1ccc(-c2nc3cc(NC(=O)CN4CCCC4)ccc3o2)cc1`, the EC50 [9] was > 50 µM (active), the EC50 (cells [10]) was > 350 µM (not active) and the EC50 (cells [11]) was > 350 µM (not active). The AC50 [12] was 12.5 µM (active).
With `CCOc1ccc(NC(=O)c2ccccc2NS(=O)(=O)c2ccc(F)cc2)c([N+](=O)[O-])c1` the EC50 (HEK293 [13]) was 4.21 µM (active), the IC50 (HEK293 [14]) was 19 µM (active) and the IC50 (HEK293 [15]) was > 20 µM (inactive). The IC50 (HEK293 [16]) was 11.8 µM (inactive), the EC50 (Mucolipin-3) was 5.29 µM (active) and the EC50 (Ion channel NompC) was > 29.9 µM (not active).
In the case of `COc1cccc(NC(=O)N(C)C[C@@H]2Oc3cc(C#Cc4ccc(F)cc4)ccc3S(=O)(=O)N([C@@H](C)CO)C[C@@H]2C)c1`, the AC50 [4] is reported as 1.04 µM (active), the AC50 [5] is reported as > 100 µM (inactive) and the AC50 [6] is reported as 2 µM (active). For the same compound, the AC50 [7] was 1.18 µM (active) and the AC50 [8] was 1.22 µM (active).
For `C[C@@H]1CN([C@H](C)CO)C(=O)c2cccc(NC(=O)CCCCCC(=O)Nc3ccccc3N)c2O[C@@H]1CN(C)S(=O)(=O)c1ccccc1`, the AC50 [17] was 3.26 µM (active), the AC50 [4] was 0.507 µM (active) and the AC50 [5] was 70.7 µM (active). The AC50 [6] was 0.989 µM (active), the AC50 [7] was 0.573 µM (active) and the AC50 [8] was 0.549 µM (active).
